This is an account of results in patent US6624176B2, “Heteroaromatic substituted amides with antagonistic activity to neurokinin 1 receptors” (Hoffmann-La Roche Inc., priority 2001, dated 2003).

Molecules are shown by their SMILES. pKi: −log10 of the molar value.

For the first data set, the target named is T1, human NK1 receptor (Homo sapiens, UniProt P25103).
T1 construct: expressed in transfected cells; host or cells: CHO cells infected using the Semliki virus expression system; membrane suspension
T1 sequence (P25103 whole entry): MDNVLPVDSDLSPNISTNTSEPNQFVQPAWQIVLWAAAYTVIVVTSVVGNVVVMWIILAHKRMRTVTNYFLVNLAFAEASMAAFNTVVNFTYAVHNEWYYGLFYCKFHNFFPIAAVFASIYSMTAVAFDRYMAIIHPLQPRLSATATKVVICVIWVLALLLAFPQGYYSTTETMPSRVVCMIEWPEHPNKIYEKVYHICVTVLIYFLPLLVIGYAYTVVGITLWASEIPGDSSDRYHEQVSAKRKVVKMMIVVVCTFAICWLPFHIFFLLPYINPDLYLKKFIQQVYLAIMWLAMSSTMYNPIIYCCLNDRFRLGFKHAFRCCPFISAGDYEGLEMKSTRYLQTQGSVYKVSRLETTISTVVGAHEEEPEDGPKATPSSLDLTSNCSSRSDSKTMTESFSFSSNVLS
In words: NK1 receptor binding assay, [3H]substance P displacement. The settings on record: affinity to the NK-1 receptor; human NK1 receptors in CHO cells; [3H]substance P 0.6 nM. The protocol:
The affinity of test compounds for the NK1 receptor was evaluated at human NK1 receptors in CHO cells infected with the human NK1 receptor (using the Semliki virus expression system) and radiolabelled with [^3H]substance P (final concentration 0.6 nM). Binding assays were performed in HEPES buffer (50 mM, pH 7.4) containing BSA (0.04%) leupeptin (8 μg/ml), MnCI2 (3 mM) and phosphoramidon (2 μM). Binding assays consisted of 250 μl of membrane suspension (1.25×10^5 cells/assay tube), […] of buffer of displacing agent and 125 μl of [^3H]substance P. Displacement curves were determined with at least seven concentrations of the compound. The assay tubes were incubated for 60 min at room temperature after which time the tube contents were rapidly filtered under vacuum through GF/C filters presoaked for 60 min with PEI (0.3%) with 2×2 ml washes of HEPES buffer (50 mM, pH 7.4). The radioactivity retained on the filters was measured by scintillation counting. All assays were performed in triplicate in at least 2 separate experiments.
What is called pKi is −log10 of the Ki, conventionally taken in molar units. Lower therefore signals a large Ki. For `Cc1ccccc1-c1cc(-n2cncn2)ncc1C(=O)N(C)Cc1cc(C(F)(F)F)cc(C(F)(F)F)c1` [Example 1, N-(3,5-Bis-trifluoromethyl-benzyl)-N-methyl-4-o-tolyl-6-[1,2,4]triazol-1-yl-nicotinamide], the pKi is 8.40.

`Cc1ccccc1-c1cc(NCCO)ncc1C(=O)N(C)Cc1cc(C(F)(F)F)cc(C(F)(F)F)c1` [Example 2, N-(3,5-Bis-trifluoromethyl-benzyl)-6-(2-hydroxy-ethylamino)-N-methyl-4-o-tolyl-nicotinamide] gave a pKi of 8.87.

As for `Cc1ccccc1-c1cc(N2CCC(O)CC2)ncc1C(=O)N(C)Cc1cc(C(F)(F)F)cc(C(F)(F)F)c1` [Example 3, 4-Hydroxy-4′-o-tolyl-3,4,5,6-tetrahydro-2H-[1,2′]bipyridinyl-5′-carboxylic acid (3,5-bis-trifluoromethyl-benzyl)-methyl-amide], the pKi is 8.91.

The compound `Cc1ccccc1-c1cc(N2CCC(OCCO)CC2)ncc1C(=O)N(C)Cc1cc(C(F)(F)F)cc(C(F)(F)F)c1` [Example 4, 4-(2-Hydroxy-ethoxy)-4′-o-tolyl-3,4,5,6-tetrahydro-2H-[1,2′]bipyridinyl-5′-carboxylic acid (3,5-bis-trifluoromethyl-benzyl)-methyl-amide] gave a pKi of 9.03.

Regarding `Cc1ccccc1-c1cc(N2CC[C@@H](O)C2)ncc1C(=O)N(C)Cc1cc(C(F)(F)F)cc(C(F)(F)F)c1` [Example 5, (R)-N-(3,5-Bis-trifluoromethyl-benzyl)-6-(3-hydroxy-pyrrolidin-1-yl)-N -methyl-4-o-tolyl-nicotinamide], the pKi is 9.24.

On to `CN(Cc1cc(C(F)(F)F)cc(C(F)(F)F)c1)C(=O)c1cnc(N2CCC(O)CC2)cc1-c1ccccc1Cl` [Example 6, 4′-(2-Chloro-phenyl)-4-hydroxy-3,4,5,6-tetrahydro-2H-[1,2′]bipyridinyl-5′-carboxylic acid (3,5-bis-trifluoromethyl-benzyl)-methyl-amide], for which the negative logarithm of the Ki (pKi) was 9.18.

Compound `Cc1ccccc1-c1cc(NCCO)ncc1N(C)C(=O)C(C)(C)c1cc(C(F)(F)F)cc(C(F)(F)F)c1` [Example 7, 2-(3,5-Bis-trifluoromethyl-phenyl)-N-[6-(2-hydroxy-ethylamino)-4-o-toyl-pyridin-3-yl]-N-methyl-isobutyramide] gave a pKi of 9.16.

In the case of `CN(C(=O)C(C)(C)c1cc(C(F)(F)F)cc(C(F)(F)F)c1)c1cnc(NCCO)cc1-c1ccccc1Cl` [Example 8, 2-(3,5-Bis-trifluofomethyl-phenyl)-N-[4-(2-chloro-phenyl)-6-(2-hydroxy-ethylamino)-pyridin-3-yl]-N-methyl-isobutyramide], the pKi is 9.14.

`Cc1ccccc1-c1cc(N2C=COCC2)ncc1N(C)C(=O)C(C)(C)c1cc(C(F)(F)F)cc(C(F)(F)F)c1` [Example 9, 2-(3,5-Bis-trifluoromethyl-phenyl)-N-[6-(2,3-dihydro-[1,4]oxazin-4-yl)-4-o-tolyl-pyridin-3-yl]-N-methyl-isobutyramide] gave a pKi of 8.83.

`CC(=O)Nc1cc(-c2ccccc2C)c(N(C)C(=O)C(C)(C)c2cc(C(F)(F)F)cc(C(F)(F)F)c2)cn1` [Example 10, N-(6-Acetylamino-4-o-tolyl-pyridin-3-yl)-2-(3,5-bis-trifluoromethyl-phenyl)-N-methyl-isobutyramide] had a pKi of 8.60.

The compound `CC(=O)N(C)c1cc(-c2ccccc2C)c(N(C)C(=O)C(C)(C)c2cc(C(F)(F)F)cc(C(F)(F)F)c2)cn1` [Example 11, N-[6-(Acetyl-methyl-amino)-4-o-tolyl-pyridin-3-yl]-2-(3,5-bis-trifluoromethyl-phenyl)-N-methyl-isobutyramide] gave a pKi of 8.71.

The compound `Cc1ccccc1-c1cc(NC(=O)C2CC2)ncc1N(C)C(=O)C(C)(C)c1cc(C(F)(F)F)cc(C(F)(F)F)c1` [Example 12, Cyclopropanecarboxylic acid (5-{[2-(3,5-bis-trifluoromethyl-phenyl)-2-methyl-propionyl]-methyl-amino}-4-o-tolyl-pyridin-2-yl)-amide] had a pKi of 8.65.

`Cc1ccccc1-c1cc(N(C)C(=O)C2CC2)ncc1N(C)C(=O)C(C)(C)c1cc(C(F)(F)F)cc(C(F)(F)F)c1` [Example 13, Cyclopropanecarboxylic acid (5-{[2-(3,5-bis-trifluoromethyl-phenyl)-2-methyl-propionyl]-methyl-amino}-4-o-tolyl-pyridin-2-yl)-methyl-amide] had a pKi of 8.87.

Compound `Cc1ccccc1-c1cc(-n2ccnc2)ncc1N(C)C(=O)C(C)(C)c1cc(C(F)(F)F)cc(C(F)(F)F)c1` [Example 14, 2-(3,5-Bis-trifluoromethyl-phenyl)-N-(6-imidazol-1-yl-4-o-tolyl-pyridin-3-yl)-N-methyl-isobutyramide] gave a pKi of 8.65.

System in the next data set: not given
Test: not given
Settings: not given
Broadly, the melting point is the temperature of the solid-liquid transition. Compound `Cc1ccccc1-c1cc(-n2cncn2)ncc1C(=O)N(C)Cc1cc(C(F)(F)F)cc(C(F)(F)F)c1` [Example 1, N-(3,5-Bis-trifluoromethyl-benzyl)-N-methyl-4-o-tolyl-6-[1,2,4]triazol-1-yl-nicotinamide] had a melting point of 91 to 93 °C.

On to `Cc1ccccc1-c1cc(N2CCC(O)CC2)ncc1C(=O)N(C)Cc1cc(C(F)(F)F)cc(C(F)(F)F)c1` [Example 3, 4-Hydroxy-4′-o-tolyl-3,4,5,6-tetrahydro-2H-[1,2′]bipyridinyl-5′-carboxylic acid (3,5-bis-trifluoromethyl-benzyl)-methyl-amide], for which the melting point was 150 to 152 °C.
